Assay results: US20240034736A1, “HSD17B13 INHIBITORS AND USES THEREOF” (FL2022-001, Inc., priority 2020, published 2024)

Biological target: Recombinant human HSD17B13 enzyme (Homo sapiens (Human), UniProt Q7Z5P4)
Assay: HSD17b13 NAD(P)H-Glo Biochemical Assay
Conditions: for IC50: 50 uM estradiol, 1 mM NAD+, read-out: HSD17β13 IC50; for inhibition at 30 µM: read-out: HSD17β13 inhibition at 30 uM
In short: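 Luminescent NAD(P)H-Glo detection (1 h, RT) quantified cofactor reduction after a 3 h, 37° C reaction of human HSD17B13 with estradiol (50 uM final) and NAD+ (1 mM final). Compounds were first pre-incubated 20 min at RT with enzyme in Tris pH 7.4 buffer containing Tween-20 and BSA.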

Sequence of Recombinant human HSD17B13 enzyme (Q7Z5P4 20-300): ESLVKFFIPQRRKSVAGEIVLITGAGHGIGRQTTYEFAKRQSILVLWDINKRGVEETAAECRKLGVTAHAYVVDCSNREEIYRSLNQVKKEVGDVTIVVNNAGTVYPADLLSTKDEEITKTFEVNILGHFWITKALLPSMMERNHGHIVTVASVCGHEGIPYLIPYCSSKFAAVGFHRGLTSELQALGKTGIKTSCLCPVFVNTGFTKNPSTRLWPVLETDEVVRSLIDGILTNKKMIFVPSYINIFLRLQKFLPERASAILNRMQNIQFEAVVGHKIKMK

Row | SMILES | IC50 [nM] | also measured
1 | CS(=O)(=O)N1CCN(c2cc3cnn(-c4cc(O)c(F)c(F)c4)c3cc2C2CC2)CC1 [Compound 21.49, 5-(6-Cyclopropyl-5-(4-(meth-ylsulfonyl)piperazin-1-yl)-1H-indazol-1-yl)-2,3-difluoro-phenol] | 100 to 1000 | 
2 | Cc1nn(-c2cc(O)c(F)c(C(F)(F)F)c2)c2cnc(N3CCN(S(C)(=O)=O)CC3)cc12 [Compound 21.50, 2-Fluoro-5-(3-methyl-5-(4-(methylsulfonyl)piperazin-1-yl)-1H-pyrazolo[3,4-c]-pyridine-1-yl)-3-(trifluoro-methyl)phenol] | 100 to 1000 | 
3 | CS(=O)(=O)N1CCN(c2cc3c(C4CC4)nn(-c4cc(O)c(F)c(C(F)(F)F)c4)c3cn2)CC1 [Compound 21.51, 5-(3-Cyclopropyl-5-(4-(meth-ylsulfonyl)piperazin-1-yl)-1H-pyrazolo[3,4-c]pyridine-1-yl)-2-fluoro-3-(trifluoromethyl)-phenol] | 100 to 1000 | 
4 | CS(=O)(=O)N1CCN(c2ncc3c(cnn3-c3cc(O)c(F)c(C(F)(F)F)c3)n2)CC1 [Compound 21.52, 2-Fluoro-5-(5-(4-(methyl-sulfonyl)piperazin-1-yl)-1H-pyrazolo[4,3-d]pyrimidin-1-yl)-3-(trifluoromethyl)phenol] | 100 to 1000 | 
5 | CS(=O)(=O)N1CCN(c2cc3c(F)nn(-c4cc(O)c(F)c(C(F)(F)F)c4)c3cn2)CC1 [Compound 21.53, 2-Fluoro-5-(3-fluoro-5-(4-(methylsulfonyl)piperazin-1-yl)-1H-pyrazolo[3,4-c]pyridin-1-yl)-3-(trifluoromethyl)phenol] | < 100 | 
6 | Oc1cc(-n2ncc3cc(N4CCOCC45CC5)ncc32)cc(C(F)(F)F)c1F [Compound 21.54, 5-(5-(7-Oxa-4-azaspiro[2.5]-octan-4-yl)-1H-pyrazolo[3,4-c]pyridin-1-yl)-2-fluoro-3-(trifluoromethyl)phenol] | 100 to 1000 | 
7 | C[C@@H]1COCCN1c1cc2cnn(-c3cc(O)c(F)c(C(F)(F)F)c3)c2cn1 [Compound 21.55, (R)-2-Fluoro-5-(5-(3-methyl-morpholino)-1H-pyrazolo[3,4-c]pyridin-1-yl)-3-(trifluoro-methyl)phenol] | 100 to 1000 | 
8 | C[C@H]1COCCN1c1cc2cnn(-c3cc(O)c(F)c(C(F)(F)F)c3)c2cn1 [Compound 21.56, (S)-2-Fluoro-5-(5-(3-methyl-morpholino)-1H-pyrazolo[3,4-c]pyridin-1-yl)-3-(trifluoro-methyl)phenol] | 100 to 1000 | 
9 | Oc1cc(-n2ncc3cc(N4CCOCC4)ncc32)cc(C(F)(F)F)c1F [Compound 21.57, 2-Fluoro-5-(5-morpholino-1H-pyrazolo[3,4-c]pyridin-1-yl)-3-(trifluoromethyl)phenol] | 100 to 1000 | 
10 | CN(c1ccc2c(c1)c(F)nn2-c1cc(C(F)(F)F)c(F)c(O)c1F)C1CCOCC1 [Compound 21.58, 2,6-Difluoro-3-(3-fluoro-5-(methyl(tetrahydro-2H-pyran-4-yl)amino)-1H-indazol-1-yl)-5-(trifluoromethyl)phenol] | 100 to 1000 | 
11 | Oc1c(F)c(-n2nnc3cc(N4CCOCC45CC5)ncc32)cc(C(F)(F)F)c1F [Compound 21.59, 3-(6-(7-Oxa-4-azaspiro[2.5]-octan-4-yl)-3H-[1,2,3]triazolo-[4,5-c]pyridin-3-yl)-2,6-difluoro-5-(trifluoromethyl)-phenol] | 100 to 1000 | 
12 | Oc1c(F)c(-n2cnc3cc(N4CCOCC45CC5)ncc32)cc(C(F)(F)F)c1F [Compound 21.60, 3-(6-(7-Oxa-4-azaspiro[2.5]-octan-4-yl)-3H-imidazo[4,5-c]pyridin-3-yl)-2,6-difluoro-5-(trifluoromethyl)phenol] | 1000 to 30000 | 
13 | CS(=O)(=O)N1CCN(c2ccc3c(c2)cc(C(=O)O)n3-c2ccc(F)c(O)c2)CC1 [Compound 21.61, 1-(4-Fluoro-3-hydroxyphenyl)-5-(4-(methylsulfonyl)piperazin-1-yl)-1H-indole-2-carboxylic acid] |  | inhibition at 30 µM: < 20%
14 | COC(=O)c1cc2cc(N3CCN(S(C)(=O)=O)CC3)ccc2n1-c1ccc(F)c(O)c1 [Compound 21.62, Methyl 1-(4-fluoro-3-hydroxy-phenyl)-5-(4-(methylsulfonyl)-piperazin-1-yl)-1H-indole-2-carboxylate] |  | inhibition at 30 µM: < 20%
15 | Cc1nc2cc(N3CCOCC34CC4)ncc2n1-c1cc(C(F)(F)F)c(F)c(O)c1F [Compound 21.63, 2,6-Difluoro-3-(2-methyl-6-(7-oxa-4-azaspiro[2.5]octan-4-yl)-3H-imidazo[4,5-c]pyridin-3-yl)-5-(trifluoromethyl)phenol] |  | inhibition at 10 µM (read-out: HSD17β13 inhibition at 10 uM): < 20%
16 | COc1ccc(Nc2ccc3c(cnn3-c3ccc(F)c(O)c3)c2)cc1Cl [Compound 22, 5-(5-((3-Chloro-4-methoxyphenyl)amino)-1H-indazol-1-yl)-2-fluorophenol] | 100 to 1000 | 
17 | Oc1cc(-n2ncc3cc(Nc4ccc(O)c(Cl)c4)ccc32)ccc1F [Compound 23, 2-Chloro-4-((1-(4-fluoro-3-hydroxyphenyl)-1H-indazol-5-yl)amino)phenol] | 100 to 1000 | 
18 | CC(=O)N1CCC(Oc2ccc3c(cnn3-c3cc(O)c(F)c(F)c3)c2)CC1 [Compound 24, 1-(4-((1-(3,4-Difluoro-5-hydroxyphenyl)-1H-indazol-5-yl)oxy)piperidin-1-yl)ethan-1-one] | 1000 to 30000 | 

Row | SMILES | IC50 [nM] | also measured
19 | CC(=O)N1CC(Oc2ccc3c(cnn3-c3cc(O)c(F)c(F)c3)c2)C1 [Compound 24.01, 1-(3-((1-(3,4-Difluoro-5-hydroxyphenyl)-1H-indazol-5-yl)oxy)azetidin-1-yl)ethan-1-one] | 100 to 1000 | 
20 | CS(=O)(=O)N1CC(Oc2ccc3c(cnn3-c3cc(O)c(F)c(F)c3)c2)C1 [Compound 25, 2,3-Difluoro-5-(5-((1-(methylsulfonyl)azetidin-3-yl)oxy)-1H-indazol-1-yl)phenol] | 100 to 1000 | 
21 | CS(=O)(=O)N1CCC(Oc2ccc3c(cnn3-c3cc(O)c(F)c(F)c3)c2)CC1 [Compound 25.01, 2,3-Difluoro-5-(5-((1-(methyl-sulfonyl)piperidin-4-yl)oxy)-1H-indazol-1-yl)phenol] | 1000 to 30000 | 
22 | CC(=O)N1CCC(c2ccc3c(cnn3-c3ccc(F)c(O)c3)c2)CC1 [Compound 26, 1-(4-(1-(4-Fluoro-3-hydroxyphenyl)-1H-indazol-5-yl)piperidin-1-yl)ethan-1-one] | 1000 to 30000 | 
23 | CS(=O)(=O)N1CCC(c2ccc3c(cnn3-c3ccc(F)c(O)c3)c2)CC1 [Compound 26.01, 2-Fluoro-5-(5-(1-(methyl-sulfonyl)piperidin-4-yl)-1H-indazol-1-yl)phenol] | 1000 to 30000 | 
24 | CNC(=O)N1CCC(c2ccc3c(cnn3-c3ccc(F)c(O)c3)c2)CC1 [Compound 26.02, 4-(1-(4-Fluoro-3-hydroxy-phenyl)-1H-indazol-5-yl)-N-methylpiperidine-1-carboxamide] | 100 to 1000 | 
25 | CS(=O)(=O)N1CCC(c2ccc3c(cnn3-c3cc(O)c(F)c(F)c3)c2)CC1 [Compound 27, 2,3-Difluoro-5-(5-(1-(methylsulfonyl)piperidin-4-yl)-1H-indazol-1-yl)phenol] | < 100 | 
26 | CS(=O)(=O)N1CCC(c2cc3cnn(-c4cc(O)c(F)c(F)c4)c3cc2Cl)CC1 [Compound 27.01, 5-(6-Chloro-5-(1-(methyl-sulfonyl)piperidin-4-yl)-1H-indazol-1-yl)-2,3-difluoro-phenol] | 1000 to 30000 | 
27 | CS(=O)(=O)N1CCC(C(=O)O)(c2ccc3c(cnn3-c3cc(O)c(F)c(F)c3)c2)CC1 [Compound 28, 4-(1-(3,4-Difluoro-5-hydroxyphenyl)-1H-indazol-5-yl)-1-(methylsulfonyl)piperidine-4-carboxylic Acid] |  | inhibition at 30 µM: 49%
28 | CS(=O)(=O)N1CCC(CO)(c2ccc3c(cnn3-c3cc(O)c(F)c(F)c3)c2)CC1 [Compound 28.01] | 1000 to 30000 | 
29 | COCC1(c2ccc3c(cnn3-c3cc(O)c(F)c(F)c3)c2)CCN(S(C)(=O)=O)CC1 [Compound 28.02, 2,3-Difluoro-5-(5-(4-(meth-oxymethyl)-1-(methylsul-fonyl)piperidin-4-yl)-1H-indazol-1-yl)phenol] | 100 to 1000 | 
30 | CC1(c2ccc3c(cnn3-c3cc(O)c(F)c(F)c3)c2)CCN(S(C)(=O)=O)CC1 [Compound 28.03, 2,3-Difluoro-5-(5-(4-methyl-1-(methylsulfonyl)piperidin-4-yl)-1H-indazol-1-yl)phenol] | 1000 to 30000 | 
31 | CS(=O)(=O)N1CCC(C#N)(c2ccc3c(cnn3-c3cc(O)c(F)c(F)c3)c2)CC1 [Compound 28.04, 4-(1-(3,4-Difluoro-5-hydroxy-phenyl)-1H-indazol-5-yl)-1-(methylsulfonyl)piperidine-4-carbonitrile] | 1000 to 30000 | 
32 | Cc1cc(O)c(F)c(-n2ncc3cc(N4CCN(S(C)(=O)=O)CC4)ccc32)c1 [Compound 28.05, 2-Fluoro-5-methyl-3-(5-(4-(methylsulfonyl)piperazin-1-yl)-1H-indazol-1-yl)phenol] | 1000 to 30000 | 
33 | CS(=O)(=O)N1CCN(c2ccc3c(cnn3-c3nccc(O)c3F)c2)CC1 [Compound 28.06, 3-Fluoro-2-(5-(4-(methyl-sulfonyl)piperazin-1-yl)-1H-indazol-1-yl)pyridin-4-ol] | 1000 to 30000 | 
34 | CS(=O)(=O)N1CCN(c2ccc3c(cnn3-c3cc(O)cc(C(F)(F)F)c3)c2)CC1 [Compound 28.07, 3-(5-(4-(Methylsulfonyl)-piperazin-1-yl)-1H-indazol-1-yl)-5-(trifluoromethyl)phenol] | 100 to 1000 | 
35 | CS(=O)(=O)N1CCN(c2cc3cnn(-c4cc(O)c(F)c(C(F)(F)F)c4)c3nn2)CC1 [Compound 28.08, 2-Fluoro-5-(5-(4-(methyl-sulfonyl)piperazin-1-yl)-1H-pyrazolo[3,4-c]pyridazin-1-yl)-3-(trifluoromethyl)phenol] | 1000 to 30000 | 
36 | CNC(=O)C1(c2ccc3c(cnn3-c3cc(O)c(F)c(F)c3)c2)CCN(S(C)(=O)=O)CC1 [Compound 29, 4-(1-(3,4-Difluoro-5-hydroxyphenyl)-1H-indazol-5-yl)-N-methyl-1-(methylsulfonyl)piperidine-4-carboxamide] | 1000 to 30000 | 
